Patent US20130197032A1, “[…] COMPOUNDS FOR THE TREATMENT OF NEUROLOGICAL AND […] DISORDERS” (A. CARLSSON RESEARCH AB, priority 2010, published 2013)
Several values for one entry are separate records, joined by “and”; a condition that tells them apart may be missing. Identical values can stand only once. Like-named read-outs stand apart in the source and are kept apart here.

Assays:
[1] = system: reserpine-pretreated mice; assay: Motor activity in monoamine-depleted (reserpine-pretreated) mice, video tracking; conditions: for antagonism of motor stimulation induced by (+)-OSU6162 250 μmol/kg ip / antagonism of motor stimulation induced by (−)-OSU6162 250 μmol/kg ip: haloperidol 1 mg/kg ip, raclopride 20 mg/kg sc, M100907 1 mg/kg ip, SCH23390 0.3 mg/kg sc, SCH39166 0.1-0.9 mg/kg sc
drug naive mice = assay: Head twitch induction in mice; type: in vivo; conditions: DOI 1 mg/kg ip, OSU6162 enantiomers 9.375-300 μmol/kg ip, 10 min before registration
Protocol: The animals used in the head twitch experiments were individually placed in Macrolon type II cages and allowed to habituate to these test cages during 30 minutes before the video registration of behavior began. […] The animals were videotaped for 10 minutes; the behavior was scored during the first 5 minutes. The number of head twitches was counted from the videotapes by a person blind to the treatment.
In FIG. 5, the number of head twitches produced during 5 minutes is shown. The mice were habituated to the test cages during 30 minutes before the video registration of behavior began. […] Shown are means and SEM, n=6-12.

D2 receptors [2] = biological target: T1, D2 receptors (Homo sapiens, UniProt P14416); assay: BRET2 beta-arrestin-2 recruitment assay at D2; type: cell-based; design: expressed in transfected cells; host or cells: HEK-293T
Protocol: (§1) BRET-2 signals were measured using the multiplate reader Mithras 940LB (Berthold Technologies, Bad Wildbad, Germany) and were calculated as the ratio between the Renilla luciferase emission and the GFP2 emission corrected by the background emissions of non-transfected cells.
Each curve is representative of two to three independent experiments.

D2 receptors [3] = biological target: T1, D2 receptors; assay: R-SAT functional assay at D2; type: cell-based; design: expressed in transfected cells; host or cells: NIH-3T3
human 5-HT2A receptors [4] = biological target: T2, human 5-HT2A receptors (Homo sapiens, UniProt P28223); assay: BRET2 beta-arrestin-2 recruitment assay at 5-HT2A; type: cell-based; design: expressed in transfected cells; host or cells: HEK-293T
Protocol: as §1

human 5-HT2A receptors [5] = biological target: T2, human 5-HT2A receptors; assay: Phosphatidyl inositol (PI) hydrolysis assay at 5-HT2A; type: cell-based; design: expressed in transfected cells
Protocol: After lysing the cells with 50 μl of 0.1M formic acid, 20 μl each cell lysate was mixed with 80 μl (1 mg) RNA Binding YSi-SPA beads (GE Healthcare, Chalfont St. Giles, UK) on PICO plates (PerkinElmer) and counted on a TopCount (Packard).
Each curve is representative of at least three or more independent experiments.

D2 receptors [6] = biological target: T1, D2 receptors; assay: GTPγS binding assay at D2; type: biochemical; design: expressed in transfected cells
Protocol: Cells were not centrifuged following cell scraping, but were collected directly into the ice-cold nitrogen cavitation chamber.
50 μl/well Wheat-Germ Agglutinin SPA beads (Perkin Elmer, Shelton, Conn.) were added to the plates and the plates incubated for 1 hour. The plates were then centrifuged at 1,000×g for 10 minutes and read on a Top Count NXT (Perkin Elmer, Shelton, Conn.).
To relate the results observed in R-SAT™ to a more conventional assay system, these ligands were also tested for the ability to induce GTPγS binding through D2 receptors.

human 5-HT2A receptors [7] = biological target: T2, human 5-HT2A receptors; assay: R-SAT functional assay at 5-HT2A; type: cell-based; design: expressed in transfected cells; host or cells: NIH-3T3; conditions: for EC50: read-out: R-SAT pEC50 (converted)
human 5-HT1F receptor = biological target: T3, human 5-HT1F receptor (Homo sapiens, UniProt P30939); assay: R-SAT assay 5-HT1F; type: cell-based; conditions: Table 3, 5-HT1F
T3 construct: expressed in transfected cells; host or cells: NIH/3T3
T3 sequence (P30939 1-366): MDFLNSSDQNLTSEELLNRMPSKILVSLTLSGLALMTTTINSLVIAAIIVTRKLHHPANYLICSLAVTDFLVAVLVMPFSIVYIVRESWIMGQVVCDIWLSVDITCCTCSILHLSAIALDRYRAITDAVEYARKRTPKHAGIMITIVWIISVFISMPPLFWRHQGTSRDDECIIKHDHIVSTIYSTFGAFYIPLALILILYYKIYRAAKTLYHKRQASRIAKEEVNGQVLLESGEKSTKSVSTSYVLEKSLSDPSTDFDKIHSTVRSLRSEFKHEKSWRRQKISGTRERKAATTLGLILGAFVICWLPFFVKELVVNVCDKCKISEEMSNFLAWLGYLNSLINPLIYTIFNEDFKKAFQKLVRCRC

human 5-HT1E receptor = biological target: T4, human 5-HT1E receptor (Homo sapiens, UniProt P28566); assay: R-SAT assay 5-HT1E; type: cell-based; conditions: Table 3, 5-HT1E
T4 construct: expressed in transfected cells; host or cells: NIH/3T3

human H1 receptor = biological target: T5, human H1 receptor (Homo sapiens, UniProt P35367); assay: R-SAT assay H1; type: cell-based; conditions: Table 3, H1; percent response of reference Histamine
T5 construct: expressed in transfected cells; host or cells: NIH/3T3

habituated rats = assay: Locomotion in habituated rats, photocell activity boxes; conditions: habituated rats
Protocol: Motor activity experiments in both active and habituated rats were performed on male Sprague-Dawley rats (Charles River, Germany) weighing 280-320 g. Prior to testing, rats were housed in groups of four or five in ventilated Macrolon type IV cages for approximately one week.
Rats were housed in a normal daylight cycle and the experiments were carried out during daytime. […] During the following 5 minutes test drugs were injected, after which the rats were returned to the boxes for another 60 minutes. Five by five rows of photocell beams at floor level allowed a computer based-system to register horizontal activity. Motor activity is presented as accumulated number of unrepeated beam breaks, i.e. several consecutive breakings of one beam is counted as one beam break. The software was set to register behavior from the rats' first introduction into the arena until it was finally removed from the box, i.e. for 110 or 130 minutes.
Locomotion was measured as accumulated unrepeated beam breaks. […] This was followed by 60 minutes of registration. Data are calculated from a 30 minutes period, 5-35 minutes after injection, and plotted as means and SEM. […] Data were calculated from a 30 minutes period, 5-35 minutes after injection.
The effect of haloperidol on the locomotor stimulation was also studied in habituated rats (see FIG. 10). Locomotion was measured as accumulated unrepeated beam breaks. Rats were given haloperidol (0.05, 0.2, 0.5 mg/kg, sc) and were then allowed to habituate for 65 minutes. […] Data are calculated from a 30 minutes period, taken 5-35 minutes after injection, and plotted as means and SEM. N=4-5.

[8] = percent response of reference ligand dopamine, mean ± SEM
[9] = Table 2, percent response of reference ligand pergolide, mean ± SEM
[10] = percent response of reference ligand 5-HT, mean ± SEM
[11] = Table 1, negative logarithm of EC50 in molar (M), NIH3T3 cells, mean ± SEM
[12] = negative logarithm of EC50 in molar (M), HEK 293T cells, mean ± SEM
[13] = negative logarithm of EC50 in molar
[14] = percent response of reference BRL 54443
[15] = reserpine-pretreated mice, M100907 0.1 and 1 mg/kg ip 30 minutes prior
[16] = haloperidol 0.05, 0.2 and 0.5 mg/kg sc

T1 sequence (P14416 1-414 isoform P14416-2): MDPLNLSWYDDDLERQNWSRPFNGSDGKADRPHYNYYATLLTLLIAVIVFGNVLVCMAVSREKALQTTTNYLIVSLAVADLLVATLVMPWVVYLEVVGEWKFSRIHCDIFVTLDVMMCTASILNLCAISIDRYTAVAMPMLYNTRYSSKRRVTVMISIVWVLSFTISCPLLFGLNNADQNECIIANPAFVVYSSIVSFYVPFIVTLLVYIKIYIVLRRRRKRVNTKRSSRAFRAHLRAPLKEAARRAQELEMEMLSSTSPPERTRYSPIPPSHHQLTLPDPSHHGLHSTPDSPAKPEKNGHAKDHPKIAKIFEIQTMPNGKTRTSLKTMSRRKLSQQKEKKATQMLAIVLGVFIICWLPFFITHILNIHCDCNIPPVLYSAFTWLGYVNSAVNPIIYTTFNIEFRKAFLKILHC
T2 sequence (P28223 whole entry): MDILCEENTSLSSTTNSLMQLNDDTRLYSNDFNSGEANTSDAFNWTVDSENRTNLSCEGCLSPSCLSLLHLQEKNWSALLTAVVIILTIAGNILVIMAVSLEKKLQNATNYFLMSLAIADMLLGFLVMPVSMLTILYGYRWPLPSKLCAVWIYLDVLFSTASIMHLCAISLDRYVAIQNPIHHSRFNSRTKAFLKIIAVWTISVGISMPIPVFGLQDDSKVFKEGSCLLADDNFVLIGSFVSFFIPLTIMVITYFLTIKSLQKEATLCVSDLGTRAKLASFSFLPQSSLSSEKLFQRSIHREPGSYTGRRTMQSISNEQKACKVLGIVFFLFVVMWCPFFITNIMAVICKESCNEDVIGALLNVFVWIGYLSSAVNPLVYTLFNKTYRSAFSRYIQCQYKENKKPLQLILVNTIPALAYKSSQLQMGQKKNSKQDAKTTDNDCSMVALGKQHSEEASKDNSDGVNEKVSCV
T4 sequence (P28566 whole entry): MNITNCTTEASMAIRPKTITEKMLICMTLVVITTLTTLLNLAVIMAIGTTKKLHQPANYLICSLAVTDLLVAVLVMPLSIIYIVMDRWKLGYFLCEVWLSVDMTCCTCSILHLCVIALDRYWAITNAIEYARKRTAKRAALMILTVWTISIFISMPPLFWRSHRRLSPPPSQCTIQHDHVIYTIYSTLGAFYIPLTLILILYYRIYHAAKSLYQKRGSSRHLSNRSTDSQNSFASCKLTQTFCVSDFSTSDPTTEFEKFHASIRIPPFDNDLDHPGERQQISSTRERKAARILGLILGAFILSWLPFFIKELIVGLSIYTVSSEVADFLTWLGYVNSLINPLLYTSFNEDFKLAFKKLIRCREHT
T5 sequence (P35367 whole entry): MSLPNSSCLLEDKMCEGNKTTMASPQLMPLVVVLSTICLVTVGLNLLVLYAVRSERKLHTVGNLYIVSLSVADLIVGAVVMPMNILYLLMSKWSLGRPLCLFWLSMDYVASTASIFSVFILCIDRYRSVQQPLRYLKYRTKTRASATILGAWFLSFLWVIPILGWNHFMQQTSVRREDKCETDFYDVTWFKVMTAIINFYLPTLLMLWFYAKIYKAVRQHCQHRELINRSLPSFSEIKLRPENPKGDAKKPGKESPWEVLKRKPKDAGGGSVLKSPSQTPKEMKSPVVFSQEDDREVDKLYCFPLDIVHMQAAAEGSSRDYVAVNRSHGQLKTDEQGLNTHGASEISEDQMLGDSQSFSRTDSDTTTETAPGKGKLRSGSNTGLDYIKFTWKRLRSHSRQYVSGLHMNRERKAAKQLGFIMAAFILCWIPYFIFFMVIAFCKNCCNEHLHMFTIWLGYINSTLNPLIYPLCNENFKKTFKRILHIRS

## COc1cc(CC(C)N)c(OC)cc1I.Cl (racemic) [DOI, (±)-1-(2,5-dimethoxy-4-iodophenyl)-2-aminopropane hydrochloride, reference compound]
[1]; reserpine 10 mg/kg ip 20 h prior, test drug ip just prior to recording, first 30 minutes, vs reserpine only group
  motor activity (distance moved, DM 1.5): able to induce locomotor stimulation in reserpine-pretreated mice
Drug naive mice
  head twitches produced during 5 minutes: induces head twitches in the mouse

## CCCN1CCCC(c2cccc(O)c2)C1 (single isomer, unassigned; (+)) [(+)-3-PPP, [3-(3-hydroxyphenyl)-N-n-propyl]piperidine]
D2 receptors [2]
  agonist profile in BRET2 assays at D2 receptors: partial agonists
D2 receptors [2]; [8]
  BRET2 Eff %: 58 ± 2%
D2 receptors [3]; [9]
  R-SAT Eff(%): 101 ± 8%
Human 5-HT2A receptors [4]; negative logarithm of EC50 in molar (M), HEK 293T cells, mean ± SEM, read-out: BRET2 pEC50 (converted)
  EC50: > 0.0001 M
Human 5-HT2A receptors [4]; [10]
  BRET2 Eff %: 42 ± 5%
Human 5-HT2A receptors [5]; negative logarithm of EC50 in molar (M), HEK 293T cells, mean ± SEM, read-out: PI Hydrolysis pEC50 (converted)
  EC50: > 1e-05 M
Human 5-HT2A receptors [5]; [10]
  PI Hydrolysis Eff (%): 17 — %
D2 receptors [6]
  agonist profile in GTPγS binding assays at D2 receptors: full agonist
D2 receptors [6]; [8]
  GTPγS Eff %: 102 ± 4%
Human 5-HT2A receptors [7]
  R-SAT Eff(%): 87 ± 26%
Human 5-HT2A receptors [7]; [11]
  EC50: 6.31e-06 M

## CCCN1CCCC(c2cccc(O)c2)C1 (single isomer, unassigned; (-)) [(−)-3-PPP, [3-(3-hydroxyphenyl)-N-n-propyl]piperidine]
D2 receptors [2]; [8]
  BRET2 Eff %: 2% and 2 ± 0%
D2 receptors [3]; [9]
  R-SAT Eff(%): 77% and 77 ± 4%
Human 5-HT2A receptors [4]; [10]
  BRET2 Eff %: 10 ± 4%
Human 5-HT2A receptors [5]; [10]
  PI Hydrolysis Eff (%): 5 — %
D2 receptors [6]
  agonist profile in GTPγS binding assays at D2 receptors: strong partial agonists
D2 receptors [6]; [8]
  GTPγS Eff %: 77 ± 4%
Human 5-HT2A receptors [7]
  R-SAT Eff(%): 47 ± 12%
Human 5-HT2A receptors [7]; [11]
  EC50: 3.98e-06 M

## NCCc1c[nH]c2ccc(O)cc12 [5-HT, 5-hydroxytryptamine]
Human 5-HT2A receptors [4]
  BRET2 Eff %: 100 ± 5%
Human 5-HT2A receptors [5]
  PI Hydrolysis Eff (%): 100 ± 0%

## CCN(CC)C(=O)N[C@H]1C[C@@H]2c3cccc4[nH]cc(c34)C[C@H]2N(C)C1 [(+)-Terguride]
D2 receptors [2]; negative logarithm of EC50 in molar, HEK293T cells, mean ± SEM
  BRET2 pEC50: 7.2 ± 0.1
D2 receptors [2]; [8]
  BRET2 Eff %: 8 ± 1%
D2 receptors [2]; percent response of reference ligand dopamine, mean ± SEM, listed as (+)-terguride
  BRET2 Eff %: 8%
D2 receptors [3]
  R-SAT Eff(%): 92 ± 20%
D2 receptors [3]; Table 2, negative logarithm of EC50 in molar, NIH3T3 cells, mean ± SEM
  R-SAT pEC50: 11.1 ± 0.2
Human 5-HT2A receptors [4]; [12]
  BRET2 pEC50: 7.0 ± 0.0
Human 5-HT2A receptors [4]; [10]
  BRET2 Eff %: 42 ± 2%
Human 5-HT2A receptors [5]; [12]
  PI Hydrolysis pEC50: 9.1 ± 0.2
Human 5-HT2A receptors [5]; [10]
  PI Hydrolysis Eff (%): 52 ± 8%
D2 receptors [6]
  GTPγS pEC50: 9.3 ± 0.2
  agonist profile in GTPγS binding assays at D2 receptors: strong partial agonists
D2 receptors [6]; [8]
  GTPγS Eff %: 88 ± 8%
Human 5-HT2A receptors [7]; [11]
  R-SAT pEC50: 9.8 ± 0.9
Human 5-HT2A receptors [7]; Table 1, percent response of reference ligand 5-CT, mean ± SEM
  R-SAT Eff(%): 89 ± 13%

## CN1CCC(c2c[nH]c3ccc(O)cc23)CC1 [BRL 54443, reference compound]
Human 5-HT1F receptor; [13]
  pEC50: 6.8
Human 5-HT1F receptor; [14]
  Eff (%): 100%
Human 5-HT1E receptor; [13]
  pEC50: 6.7
Human 5-HT1E receptor; [14]
  Eff (%): 100%

## NCCc1c[nH]cn1 [Histamine, reference compound]
Human H1 receptor
  Eff (%): 100%

## COc1cccc([C@H](O)C2CCN(CCc3ccc(F)cc3)CC2)c1OC [M100907, (+)-(R)-1-[1-[2-(4-fluorophenyl)ethyl]piperidin-4-yl]-1-(2,3-dimethoxyphenyl)methanol]
[1]; reserpine-pretreated mice, M100907 0.01, 0.1, 1 mg/kg ip 30 minutes prior
  effect of three doses on motor activity increase caused by 250 μmol/kg of (−)-OSU6162: Only the 1 mg/kg dose significantly decreased motor activity
[1]; reserpine-pretreated mice, M100907 0.01, 0.1, 1 mg/kg ip 30 minutes prior, all doses significant
  antagonism of locomotor stimulation induced by DOI 2.5 mg/kg: highly effective in antagonizing the locomotor stimulant effects of 2.5 mg/kg of DOI
[1]; [15]
  reversal of locomotor stimulation induced by 125 μmol/kg of (+)-OSU6162: effectively reversed
  reversal of locomotor stimulation induced by 125 μmol/kg of (−)-OSU6162: effectively reversed
[1]; reserpine-pretreated mice
  antagonism of motor stimulation induced by (+)-OSU6162 250 μmol/kg ip: effectively antagonized this response
  antagonism of motor stimulation induced by (−)-OSU6162 250 μmol/kg ip: effectively antagonized
Habituated rats; M100907 1 mg/kg ip, 15-35 minute interval
  reversal of (−)-OSU6162-induced locomotor stimulation: significant reversal
Habituated rats; M100907 0.5 and 1 mg/kg ip, 5-35 minute interval
  counteraction of locomotor stimulation induced by (+)-OSU6162 50 μmol/kg sc: significantly counteracted

## Clc1ccc2c(c1)N=C(N1CCNCC1)c1ccccc1N2 [NDMC, 8-chloro-11-(1-piperazinyl)-5H-dibenzo[b,e][1,4]diazepine]
D2 receptors [2]
  agonist profile in BRET2 assays at D2 receptors: no agonist activity
D2 receptors [2]; [8]
  BRET2 Eff %: 0 ± 0%
D2 receptors [3]
  R-SAT Eff(%): 33 ± 2%
D2 receptors [3]; Table 2, negative logarithm of EC50 in molar, NIH3T3 cells, mean ± SEM, read-out: R-SAT pEC50 (converted)
  EC50: 12.6 nM
D2 receptors [6]; negative logarithm of EC50 in molar, HEK293T membranes, mean ± SEM, read-out: GTPγS pEC50 (converted)
  EC50: 39.8 nM
D2 receptors [6]; [8]
  GTPγS Eff %: 18 ± 1%

## CCCN[C@H]1CCc2nc(N)sc2C1 [Pramipexole, (6S)—N^6-propyl-4,5,6,7-tetrahydro-1,3-benzothiazole-2,6-diamine]
D2 receptors [2]
  BRET2 Eff %: 104 ± 1%
  agonist profile in BRET2 assays at D2 receptors: full agonist
D2 receptors [3]
  R-SAT Eff(%): 84 ± 9%
Human 5-HT2A receptors [4]
  BRET2 Eff %: 52 ± 3%
D2 receptors [6]
  GTPγS Eff %: 87 ± 6%
Human 5-HT2A receptors [7]
  R-SAT Eff(%): 48 ± 9%

## CN1CCc2cc(Cl)c(O)cc2[C@H]2c3ccccc3CC[C@@H]21 [SCH39166]
[1]; reserpine-pretreated mice
  antagonism of motor stimulation induced by (+)-OSU6162 250 μmol/kg ip: did not significantly influence the motor activation
  antagonism of motor stimulation induced by (−)-OSU6162 250 μmol/kg ip: did not significantly influence the motor activation

## O=C(CCCN1CCC(O)(c2ccc(Cl)cc2)CC1)c1ccc(F)cc1 [haloperidol]
[1]; reserpine-pretreated mice
  antagonism of motor stimulation induced by (+)-OSU6162 250 μmol/kg ip: None of the dopaminergic antagonists, i e SCH23390 (0.3 mg/kg), raclopride (20 mg/kg) or haloperidol (1 mg/kg), could antagonize
  antagonism of motor stimulation induced by (−)-OSU6162 250 μmol/kg ip: could not antagonize
Habituated rats; [16]
  antagonism of locomotor stimulation induced by (+)-OSU6162 50 μmol/kg sc: effectively antagonized the locomotor stimulation
  antagonism of locomotor stimulation induced by (−)-OSU6162 50 μmol/kg sc: effectively antagonized the locomotor stimulation

## CCN1CCC[C@H]1CNC(=O)c1c(O)c(Cl)cc(Cl)c1OC [raclopride]
[1]; reserpine-pretreated mice
  antagonism of motor stimulation induced by (+)-OSU6162 250 μmol/kg ip: None of the dopaminergic antagonists, i e SCH23390 (0.3 mg/kg), raclopride (20 mg/kg) or haloperidol (1 mg/kg), could antagonize
  antagonism of motor stimulation induced by (−)-OSU6162 250 μmol/kg ip: could not antagonize
